# Columns and labels:
# Type in all cases: in vivo
# [1] = system: Panonychus ulmi (OP- and carb.- resistant); test: Activity against Panonychus ulmi (OP- and carb.- resistant); conditions: 336 h, 400 ppm spray on apple seedlings, evaluated after 14 days, read-out: percentage reduction in population (% activity)
# Procedure: Apple seedlings are populated with adult females of Panonychus ulmi. After seven days, the infested plants are sprayed to drip point with an aqueous emulsion comprising 400 ppm of the test compound and grown in the greenhouse. The test is evaluated after 14 days. The percentage reduction in population (% activity) is determined by comparing the number of dead spider mites on the treated plants with those on the untreated plants. […] An activity of over 80% is shown, in particular, by compound Nos. 1.01, 2.01, 2.07, 2.08, 2.10, 2.12 to 2.16, 2.22, 2.23, 2.26, 3.01, 4.01, 4.02, 4.06, 5.01 to 5.03, 5.05, 5.06, 5.08, 5.10, 5.11, 5.15, 5.16 and 5.20 to 5.25.
# Nephotettix cincticeps = test: Activity against Nephotettix cincticeps (spray on rice plants); conditions: 504 h, 400 ppm spray on rice plants, larvae in stages 2 and 3, evaluated 21 days later, read-out: percentage reduction in population (% activity)
# Procedure: Rice plants are treated with a spray mixture prepared with an aqueous emulsion and comprising 400 ppm of the active ingredient. After the spray coating has dried on, the rice plants are populated with leaf hopper larvae in stages 2 and 3. The test is evaluated 21 days later. The percentage reduction in population (% activity) is determined by comparing the number of surviving leaf hoppers on the treated plants with those on the untreated plants.
# Dermanyssus gallinae = test: Activity against Dermanyssus gallinae; conditions: 72 h, 10 ppm solution, mites in different development stages, after 3 days
# Procedure: 2 to 3 ml of a solution comprising 10 ppm of active ingredient and approximately 200 mites in different development stages are placed into a glass container which is open at the top. The container is then sealed with a cottonwool ball, shaken for 10 minutes until the mites are wetted completely, and then briefly turned over so that the remaining test solution can be absorbed by the cottonwool. After 3 days, the mortality of the mites is determined by counting the dead individuals; it is given as a percentage.
# Nilaparvata lugens [2] = test: Activity against Nilaparvata lugens (spray on rice plants); conditions: 504 h, 400 ppm spray on rice plants, larvae in stages 2 and 3, evaluated after 21 days, read-out: percentage reduction in population (% activity)
# Procedure: Rice plants are treated with a spray mixture prepared with an aqueous emulsion and comprising 400 ppm of the active ingredient. After the spray coating has dried on, the rice plants are populated with plant hopper larvae in stages 2 and 3. The test is evaluated after 21 days. The percentage reduction in population (% activity) is determined by comparing the number of surviving plant hoppers on the treated plants with the number of plant hoppers on the untreated plants. […] An activity of over 80% is shown, in particular, by compound Nos. 1.01, 2.01 to 2.03, 2.07, 2.08, 2.10 to 2.16, 2.20, 2.22, 2.23, 2.26, 3.01, 4.01 to 4.06, 4.20, 5.01 to 5.06, 5.08, 5.10 to 5.12, 5.15, 5.16 and 5.20 to 5.25.
# adult Anthonomus grandis = test: Activity against adult Anthonomus grandis; conditions: 72 h, 400 ppm spray on young cotton plants, adults, evaluated after 3 days, read-out: percentage reduction in population or in feeding damage (% activity)
# Procedure: (§1) Young cotton plants are sprayed with a spray mixture prepared with an aqueous emulsion and comprising 400 ppm of the active ingredient. After the spray coating has dried on, the cotton plants are populated with 10 adult Anthonomus grandis and placed into a plastic container. The test is evaluated after 3 days. The percentage reduction in population, or the percentage reduction in feeding damage (% activity), is determined by comparing the number of dead beetles and the feeding damage on the treated plants with those on the untreated plants.
# Tetranychus urticae = test: Activity against Tetranychus urticae; conditions: 144 h, 400 ppm spray on young bean plants, mixed population, 6 days at 25° C, read-out: percentage reduction in population (% activity)
# Procedure: Young bean plants are populated with a mixed population of Tetranychus urticae and, after 1 day, sprayed with a spray mixture prepared with an aqueous emulsion and comprising 400 ppm of the active ingredient. The plants are subsequently incubated for 6 days at 25° C and then evaluated. The percentage reduction in population (% activity) is determined by comparing the number of dead eggs, larvae and adults on the treated plants with those on the untreated ones.
# Heliothis virescens = test: Ovicidal/larvicidal activity on Heliothis virescens; conditions: 192 h, 400 ppm spray on eggs deposited on cotton, evaluated after 8 days, read-out: % reduction in population (hatching percentage of eggs and survival rate of caterpillars)
# Procedure: Heliothis eggs which have been deposited on cotton are sprayed with a spray mixture prepared with an aqueous emulsion and comprising 400 ppm of the active ingredient. After 8 days, the hatching percentage of the eggs and the survival rate of the caterpillars are evaluated by comparing them with untreated control batches (% reduction in population).
# Nilaparvata lugens [3] = test: Systemic activity against Nilaparvata lugens; conditions: 144 h, pots with rice plants in 400 ppm aqueous emulsion solution, larvae in stages 2 and 3, evaluated 6 days later, read-out: percentage reduction in population (% activity)
# Procedure: Pots containing rice plants are placed into an aqueous emulsion solution comprising 400 ppm of the active ingredient. The rice plants are subsequently populated with larvae in stages 2 and 3. The test is evaluated 6 days later. The percentage reduction in population (% activity) is determined by comparing the numbers of plant hoppers on the treated plants with those on the untreated plants.
# Ctenocephalides felis = test: Activity against Ctenocephalides felis; conditions: 504 h, 100 ppm in flea larvae nutrient medium, flea eggs, checked after 21 days
# Procedure: 20 to 25 flea eggs are placed into a horizontally positioned 50 ml tissue culture flask into which 15 g of flea larvae nutrient medium comprising 100 ppm of the active ingredient to be tested have previously been introduced. The test flasks are incubated in an incubator at 26° to 27° C. and an atmospheric humidity of 60-70%. After 21 days, the flasks are checked for the presence of adult fleas, unhatched pupae and larvae.
# [4] = system: Heliothis virescens caterpillars; test: Activity against Heliothis virescens caterpillars; conditions: 144 h, 400 ppm spray on young soybean plants, first larval stage, evaluated after 6 days, read-out: percentage reduction in population or in feeding damage (% activity)
# Procedure: as §1, with “soybean” for “cotton”, “Heliothis virescens in the first larval stage” for “adult Anthonomus grandis”, “6” for “3”, “caterpillars” for “beetles”
smiles,measurement,setting,value
O=C(CCCC=C(F)F)OCCOc1ccc(Oc2ccccc2)cc1 [Compound 2.01],activity at 400 ppm,[1],> 80%
same,activity at 400 ppm,Nephotettix cincticeps,> 80%
O=C(CCCC=C(F)F)OCCOc1ccc(Sc2ccccc2)cc1 [Compound 2.02],activity at 400 ppm,Nephotettix cincticeps,> 80%
O=C(CCCC=C(F)F)OCCOc1ccc(Oc2ccccn2)cc1 [Compound 2.03],activity at 400 ppm,Nephotettix cincticeps,> 80%
CC(COC(=O)CCCC=C(F)F)Oc1ccc(Oc2ccccc2)cc1 (stereo not shown) [Compound 2.06],activity at 400 ppm,Nephotettix cincticeps,> 80%
same,mortality at 10 ppm,Dermanyssus gallinae,> 80%
O=C(CCCC=C(F)F)OCCOc1ccc(OCc2ccc(F)cc2)cc1 [Compound 2.07],activity at 400 ppm,Nilaparvata lugens [2],> 80%
same,activity at 400 ppm,[1],> 80%
same,activity at 400 ppm,Nephotettix cincticeps,> 80%
same,activity at 400 ppm,adult Anthonomus grandis,> 80%
O=C(CCCC=C(F)F)OCCOc1ccc(OCc2ccc(Cl)cc2)cc1 [Compound 2.08],activity at 400 ppm,Nilaparvata lugens [2],> 80%
same,activity at 400 ppm,[1],> 80%
same,activity at 400 ppm,adult Anthonomus grandis,> 80%
N#Cc1ccc(COc2ccc(OCCOC(=O)CCCC=C(F)F)cc2)cc1 [Compound 2.10],activity at 400 ppm,[1],> 80%
same,activity at 400 ppm,Tetranychus urticae,> 80%
CC(OC(=O)CCCC=C(F)F)C(C)Oc1ccc(Oc2ccccc2)cc1 (stereo not shown) [Compound 2.13],mortality at 10 ppm,Dermanyssus gallinae,> 80%
O=C(CCCC=C(F)F)OCCOc1ccc(OCc2cccc([N+](=O)[O-])c2)cc1 [Compound 2.15],pest or weed control at 400 ppm,Heliothis virescens,> 80%
Cc1ccc(COc2ccc(OCCOC(=O)CCCC=C(F)F)cc2)cc1C [Compound 2.16],pest or weed control at 400 ppm,Heliothis virescens,> 80%
O=C(CCCC=C(F)F)NCCOc1ccc(Oc2ccccc2)cc1 [Compound 2.20],activity at 400 ppm,Nilaparvata lugens [2],> 80%
same,activity at 400 ppm,Nilaparvata lugens [3],> 80%
CC(C)(C)c1ccc(COc2ccc(OCCOC(=O)CCCC=C(F)F)cc2)cc1 [Compound 2.26],activity at 400 ppm,Nilaparvata lugens [2],> 80%
same,pest or weed control at 100 ppm,Ctenocephalides felis,> 80%
same,activity at 400 ppm,Nilaparvata lugens [3],> 80%
same,activity at 400 ppm,[1],> 80%
same,activity at 400 ppm,Nephotettix cincticeps,> 80%
same,activity at 400 ppm,Tetranychus urticae,> 80%
same,activity at 400 ppm,[4],> 80%
same,pest or weed control at 400 ppm,Heliothis virescens,> 80%
O=C(CCCCCCCC=C(F)F)OCCOc1ccc(Oc2ccccn2)cc1 [Compound 4.03],pest or weed control at 100 ppm,Ctenocephalides felis,> 80%
Cc1nsc(Oc2ccc(OCCOC(=O)CCCCCCCC=C(F)F)cc2)n1 [Compound 4.04],pest or weed control at 100 ppm,Ctenocephalides felis,> 80%
same,mortality at 10 ppm,Dermanyssus gallinae,> 80%
